The values that follow come from patent publication US8822446B2, “Pyrrolopyridine inhibitors of kinases” (AbbVie Inc., priority 2010, dated 2014).

Molecules are shown by their SMILES.

For the experiment, the target named is T1, Cdc7 (BEV coexpressed huCDC7/DBF4) (Homo sapiens, UniProt O00311).
T1 construct: made in house; host or cells: baculovirus expression vector (BEV) co-expression
T1 sequence (O00311 whole entry): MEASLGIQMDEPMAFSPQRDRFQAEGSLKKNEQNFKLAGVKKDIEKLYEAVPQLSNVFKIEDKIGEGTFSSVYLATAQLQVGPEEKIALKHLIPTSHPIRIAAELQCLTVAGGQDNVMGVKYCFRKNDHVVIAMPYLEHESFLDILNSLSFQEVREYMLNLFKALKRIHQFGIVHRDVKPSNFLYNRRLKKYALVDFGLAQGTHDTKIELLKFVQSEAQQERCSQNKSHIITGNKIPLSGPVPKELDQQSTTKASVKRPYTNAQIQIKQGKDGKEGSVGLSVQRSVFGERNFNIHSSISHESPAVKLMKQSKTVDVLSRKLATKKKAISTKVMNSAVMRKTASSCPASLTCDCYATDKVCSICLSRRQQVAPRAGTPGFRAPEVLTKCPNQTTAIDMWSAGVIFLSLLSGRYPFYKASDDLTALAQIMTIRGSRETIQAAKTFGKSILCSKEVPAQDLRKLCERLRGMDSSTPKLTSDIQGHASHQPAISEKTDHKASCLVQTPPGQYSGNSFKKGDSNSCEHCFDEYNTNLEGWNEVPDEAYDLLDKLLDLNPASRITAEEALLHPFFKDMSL
T1 sequence (Q9UBU7 whole entry partner): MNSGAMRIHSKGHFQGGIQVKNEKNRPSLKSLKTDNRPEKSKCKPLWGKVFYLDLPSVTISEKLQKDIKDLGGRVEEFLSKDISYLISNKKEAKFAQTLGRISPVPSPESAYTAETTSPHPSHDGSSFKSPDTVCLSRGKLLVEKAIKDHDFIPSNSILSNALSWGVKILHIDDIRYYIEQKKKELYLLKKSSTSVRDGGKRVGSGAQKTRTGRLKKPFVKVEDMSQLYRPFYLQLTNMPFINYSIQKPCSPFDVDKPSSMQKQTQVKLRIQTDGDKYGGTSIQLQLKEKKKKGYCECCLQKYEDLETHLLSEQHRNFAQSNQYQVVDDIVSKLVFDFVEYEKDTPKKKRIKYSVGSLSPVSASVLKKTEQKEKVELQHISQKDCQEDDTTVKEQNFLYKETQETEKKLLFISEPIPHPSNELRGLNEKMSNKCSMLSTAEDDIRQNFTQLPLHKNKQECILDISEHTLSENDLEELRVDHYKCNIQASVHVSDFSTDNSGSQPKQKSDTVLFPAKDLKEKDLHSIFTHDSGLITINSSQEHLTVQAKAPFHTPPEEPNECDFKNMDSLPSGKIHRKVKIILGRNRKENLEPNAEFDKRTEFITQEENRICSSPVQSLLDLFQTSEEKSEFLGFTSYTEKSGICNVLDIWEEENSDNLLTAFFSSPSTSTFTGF
Description: Cdc7 enzyme inhibition assay ([33P]-ATP, biotinylated peptide substrate, FlashPlate). Format: biochemical. Conditions: Ki generated from IC50 assuming ATP-competitive inhibition; 1 μM ATP, apparent ATP Km 0.7 μM; 1 hr reaction. As to the method: This example describes the assays that may be used to identify compounds having kinase activity.
Cdc7 (BEV coexpressed huCDC7/DBF4) is prepared internally. Cdc7 assays are conducted as follows with final concentrations as listed. In 384-well v-bottom polypropylene plates, 6 μL compound (2% DMSO), is mixed with 6 μL of Cdc7 (2 ug/mL), and Jerini peptide substrate A-A11 (biotin-C6linker-[…]) (2 μM), followed by immediate initiation with 6 μL […] (1 μM, 20 mCi/μmol) using a reaction buffer comprising 25 mM HEPES, pH 7.5, 1 mM DTT, 10 mM MgCl2, 100 μM, Na3VO4, 0.075 mg/ml Triton X-100. Reactions are quenched after 1 hr by the addition of 90 μL stop buffer (50 mM EDTA, 2M NaCl).
Table 1 depicts enzyme inhibition data (Ki) for exemplary compounds.
Turning to `O=c1cc(-c2c[nH]c3ncccc23)nc(NC2CCCCC2)[nH]1` [Example 1, 2-(cyclohexylamino)-6-(1H-pyrrolo[2,3-b]pyridin-3-yl)pyrimidin-4(3H)-one], the Ki is less than 10 nM.

As to `O=c1cc(-c2c[nH]c3ncccc23)nc(NCc2ccccc2)[nH]1` [Example 2, 2-(benzylamino)-6-(1H-pyrrolo[2,3-b]pyridin-3-yl)pyrimidin-4(3H)-one], the Ki was less than 10 nM.

On to `O=c1cc(-c2c[nH]c3ncccc23)nc(Nc2ccccc2)[nH]1` [Example 3, 2-anilino-6-(1H-pyrrolo[2,3-b]pyridin-3-yl)pyrimidin-4(3H)-one], for which the Ki is less than 10 nM.

Regarding `N[C@H]1CC[C@H](Nc2nc(-c3c[nH]c4ncccc34)cc(=O)[nH]2)CC1` [Example 4, 2-[(trans-4-aminocyclohexyl)amino]-6-(1H-pyrrolo[2,3-b]pyridin-3-yl)pyrimidin-4(3H)-one], the Ki was less than 10 nM.

`O=c1cc(-c2c[nH]c3ncccc23)nc(NCc2cc(F)cc(F)c2)[nH]1` [Example 5, 2-[(3,5-difluorobenzyl)amino]-6-(1H-pyrrolo[2,3-b]pyridin-3-yl)pyrimidin-4(3H)-one]: the Ki is less than 10 nM.

As to `O=c1cc(-c2c[nH]c3ncccc23)nc(NC2CCNCC2)[nH]1` [Example 6, 2-(piperidin-4-ylamino)-6-(1H-pyrrolo[2,3-b]pyridin-3-yl)pyrimidin-4(3H)-one], the Ki was less than 10 nM.

On to `O=c1cc(-c2c[nH]c3ncccc23)nc(N2CCC(O)CC2)[nH]1` [Example 7, 2-(4-hydroxypiperidin-1-yl)-6-(1H-pyrrolo[2,3-b]pyridin-3-yl)pyrimidin-4(3H)-one], for which the Ki is less than 10 nM.

With `C[C@H](Nc1nc(-c2c[nH]c3ncccc23)cc(=O)[nH]1)c1ccccc1` [Example 8, 2-{[(1S)-1-phenylethyl]amino}-6-(1H-pyrrolo[2,3-b]pyridin-3-yl)pyrimidin-4(3H)-one], the Ki is less than 10 nM.

Consider `O=c1cc(-c2c[nH]c3ncccc23)nc(NC2CCOCC2)[nH]1` [Example 9, 6-(1H-pyrrolo[2,3-b]pyridin-3-yl)-2-(tetrahydro-2H-pyran-4-ylamino)pyrimidin-4(3H)-one], for which the Ki was less than 10 nM.

Consider `O=c1cc(-c2c[nH]c3ncccc23)nc(NCC2CCCO2)[nH]1` (centres unmarked) [Example 10, 6-(1H-pyrrolo[2,3-b]pyridin-3-yl)-2-[(tetrahydrofuran-2-ylmethyl)amino]pyrimidin-4(3H)-one], for which the Ki is less than 10 nM.

For `CN(c1nc(-c2c[nH]c3ncccc23)cc(=O)[nH]1)C1CCCCC1` [Example 11, 2-[cyclohexyl(methyl)amino]-6-(1H-pyrrolo[2,3-b]pyridin-3-yl)pyrimidin-4(3H)-one], the Ki is less than 10 nM.

As to `C[C@@H](Nc1nc(-c2c[nH]c3ncccc23)cc(=O)[nH]1)c1ccccc1` [Example 12, 2-{[(1R)-1-phenylethyl]amino}-6-(1H-pyrrolo[2,3-b]pyridin-3-yl)pyrimidin-4(3H)-one], the Ki is less than 10 nM.

Consider `NC1CCCCC1Nc1nc(-c2c[nH]c3ncccc23)cc(=O)[nH]1` (centres unmarked) [Example 13, 2-[(2-aminocyclohexyl)amino]-6-(1H-pyrrolo[2,3-b]pyridin-3-yl)pyrimidin-4(3H)-one], for which the Ki was less than 10 nM.

On to `O=c1cc(-c2c[nH]c3ncccc23)nc(NC2CCCCCC2)[nH]1` [Example 14, 2-(cycloheptylamino)-6-(1H-pyrrolo[2,3-b]pyridin-3-yl)pyrimidin-4(3H)-one], for which the Ki was less than 10 nM.

For `O=c1cc(-c2c[nH]c3ncccc23)nc(N2CCSCC2)[nH]1` [Example 15, 6-(1H-pyrrolo[2,3-b]pyridin-3-yl)-2-(thiomorpholin-4-yl)pyrimidin-4(3H)-one], the Ki was less than 10 nM.

For `CNCCNc1nc(-c2c[nH]c3ncccc23)cc(=O)[nH]1` [Example 16, 2-{[2-(methylamino)ethyl]amino}-6-(1H-pyrrolo[2,3-b]pyridin-3-yl)pyrimidin-4(3H)-one], the Ki was less than 10 nM.

As for `COCCN(CCOC)c1nc(-c2c[nH]c3ncccc23)cc(=O)[nH]1` [Example 17, 2-[bis(2-methoxyethyl)amino]-6-(1H-pyrrolo[2,3-b]pyridin-3-yl)pyrimidin-4(3H)-one], the Ki is less than 10 nM.

For `COCCNc1nc(-c2c[nH]c3ncccc23)cc(=O)[nH]1` [Example 18, 2-[(2-methoxyethyl)amino]-6-(1H-pyrrolo[2,3-b]pyridin-3-yl)pyrimidin-4(3H)-one], the Ki was less than 10 nM.

With `O=c1cc(-c2c[nH]c3ncccc23)nc(NCCO)[nH]1` [Example 19, 2-[(2-hydroxyethyl)amino]-6-(1H-pyrrolo[2,3-b]pyridin-3-yl)pyrimidin-4(3H)-one], the Ki is less than 10 nM.

In the case of `O=c1cc(-c2c[nH]c3ncccc23)nc(NCc2ccccc2C(F)(F)F)[nH]1` [Example 20, 6-(1H-pyrrolo[2,3-b]pyridin-3-yl)-2-{[2-(trifluoromethyl)benzyl]amino}pyrimidin-4(3H)-one], the Ki is less than 10 nM.

For the compound `O=c1cc(-c2c[nH]c3ncccc23)nc(N2CCC(CO)CC2)[nH]1` [Example 21, 2-[4-(hydroxymethyl)piperidin-1-yl]-6-(1H-pyrrolo[2,3-b]pyridin-3-yl)pyrimidin-4(3H)-one], the Ki is less than 10 nM.

Take `O=c1cc(-c2c[nH]c3ncccc23)nc(NCCCN2CCOCC2)[nH]1` [Example 22, 2-{[3-(morpholin-4-yl)propyl]amino}-6-(1H-pyrrolo[2,3-b]pyridin-3-yl)pyrimidin-4(3H)-one]: the Ki is less than 10 nM.

As for `O=c1cc(-c2c[nH]c3ncccc23)nc(NCc2cccc(O)c2)[nH]1` [Example 23, 2-[(3-hydroxybenzyl)amino]-6-(1H-pyrrolo[2,3-b]pyridin-3-yl)pyrimidin-4(3H)-one], the Ki is less than 10 nM.

Consider `O=c1cc(-c2c[nH]c3ncccc23)nc(N2CCOCC2)[nH]1` [Example 24, 2-(morpholin-4-yl)-6-(1H-pyrrolo[2,3-b]pyridin-3-yl)pyrimidin-4(3H)-one], for which the Ki is less than 10 nM.

In the case of `O=C(O)C1CCN(c2nc(-c3c[nH]c4ncccc34)cc(=O)[nH]2)CC1` [Example 25, 1-[6-oxo-4-(1H-pyrrolo[2,3-b]pyridin-3-yl)-1,6-dihydropyrimidin-2-yl]piperidine-4-carboxylic acid], the Ki was less than 10 nM.

In the case of `O=c1cc(-c2c[nH]c3ncccc23)nc(NC2CCCC2)[nH]1` [Example 26, 2-(cyclopentylamino)-6-(1H-pyrrolo[2,3-b]pyridin-3-yl)pyrimidin-4(3H)-one], the Ki was less than 10 nM.

As to `COC1CCN(c2nc(-c3c[nH]c4ncccc34)cc(=O)[nH]2)CC1` [Example 27, 2-(4-methoxypiperidin-1-yl)-6-(1H-pyrrolo[2,3-b]pyridin-3-yl)pyrimidin-4(3H)-one], the Ki was less than 10 nM.

Regarding `O=c1cc(-c2c[nH]c3ncccc23)nc(NC2CCCCC2O)[nH]1` (centres unmarked) [Example 28, 2-[(2-hydroxycyclohexyl)amino]-6-(1H-pyrrolo[2,3-b]pyridin-3-yl)pyrimidin-4(3H)-one], the Ki was less than 10 nM.

On to `CN1CCC(Nc2nc(-c3c[nH]c4ncccc34)cc(=O)[nH]2)CC1` [Example 29, 2-[(1-methylpiperidin-4-yl)amino]-6-(1H-pyrrolo[2,3-b]pyridin-3-yl)pyrimidin-4(3H)-one], for which the Ki is less than 10 nM.

Consider `O=c1cc(-c2c[nH]c3ncccc23)nc(NCCCn2ccnc2)[nH]1` [Example 30, 2-{[3-(1H-imidazol-1-yl)propyl]amino}-6-(1H-pyrrolo[2,3-b]pyridin-3-yl)pyrimidin-4(3H)-one], for which the Ki was less than 10 nM.

In the case of `NCCOCCOCCNc1nc(-c2c[nH]c3ncccc23)cc(=O)[nH]1` [Example 31, 2-({2-[2-(2-aminoethoxy)ethoxy]ethyl}amino)-6-(1H-pyrrolo[2,3-b]pyridin-3-yl)pyrimidin-4(3H)-one], the Ki was less than 10 nM.

Regarding `O=c1cc(-c2c[nH]c3ncccc23)nc(-c2ccccc2)[nH]1` [Example 32, 2-phenyl-6-(1H-pyrrolo[2,3-b]pyridin-3-yl)pyrimidin-4(3H)-one], the Ki was less than 10 nM.

Take `Cc1ccccc1-c1nc(-c2c[nH]c3ncccc23)cc(=O)[nH]1` [Example 33, 2-(2-methylphenyl)-6-(1H-pyrrolo[2,3-b]pyridin-3-yl)pyrimidin-4(3H)-one]: the Ki was less than 10 nM.

With `O=c1cc(-c2c[nH]c3ncccc23)cc(-c2ccccc2)[nH]1` [Example 34, 6-phenyl-4-(1H-pyrrolo[2,3-b]pyridin-3-yl)pyridin-2(1H)-one], the Ki was less than 10 nM.

In the case of `O=c1cc(-c2c[nH]c3ncccc23)cc(-c2cccc(OC(F)(F)F)c2)[nH]1` [Example 35, 4-(1H-pyrrolo[2,3-b]pyridin-3-yl)-6-[3-(trifluoromethoxy)phenyl]pyridin-2(1H)-one], the Ki was less than 10 nM.

With `O=c1cc(-c2c[nH]c3ncccc23)cc(-c2cccc(C(F)(F)F)c2)[nH]1` [Example 36, 4-(1H-pyrrolo[2,3-b]pyridin-3-yl)-6-[3-(trifluoromethyl)phenyl]pyridin-2(1H)-one], the Ki was less than 10 nM.

Turning to `Cc1cccc(-c2cc(-c3c[nH]c4ncccc34)cc(=O)[nH]2)c1C` [Example 37, 6-(2,3-dimethylphenyl)-4-(1H-pyrrolo[2,3-b]pyridin-3-yl)pyridin-2(1H)-one], the Ki was less than 10 nM.

On to `Cc1ccccc1-c1cc(-c2c[nH]c3ncccc23)cc(=O)[nH]1` [Example 38, 6-(2-methylphenyl)-4-(1H-pyrrolo[2,3-b]pyridin-3-yl)pyridin-2(1H)-one], for which the Ki was less than 10 nM.
